Patent US9834512B2, “(22E)-2-methylene-26,27-cyclo-22-dehydro-1α-hydroxy-19-norvitamin D3 derivatives” (WISCONSIN ALUMNI RESEARCH FOUNDATION, priority 2011, dated 2017)
“Also recorded” adds a separate entry of the source. Where two headings read alike, the source gives them in different places.

Experiments:
HL-60 cells = experiment: HL-60 differentiation (nitro blue tetrazolium reduction); format: cell-based, human; settings: for EC50: Homo sapiens, HL-60; for HL-60 cell differentiation activity: compound alone; for HL-60 Differentiation (Relative Activity): native hormone value / working example value, same assay
Method: The study drugs were dissolved in ethanol and the concentrations determined using UV spectrophotometry. Serial dilutions were prepared so that a range of drug concentrations could be tested without changing the final concentration of ethanol (≦0.2%) present in the cell cultures.
Human promyelocytic leukemia (HL60) cells were grown in RPMI-1640 medium containing 10% fetal bovine serum. The cells were incubated at 37° C. in the presence of 5% CO2.
HL60 cells were plated at 1.2×10^5 cells/ml. Eighteen hours after plating, cells in duplicate were treated with the drug. Four days later, the cells were harvested and a nitro blue tetrazolium reduction assay was performed (Collins et al., 1979; J. Exp. Med. 149:969-974). The percentage of differentiated cells was determined by counting a total of 200 cells and recording the number that contained intracellular black-blue formazan deposits. Verification of differentiation to monocytic cells was determined by measuring phagocytic activity (data not shown).
Antagonism was tested by adding a combination of 1,25(OH)2D3 and the putative antagonist in the same well keeping the final ethanol concentration the same.

Sprague-Dawley rats [1] = experiment: Bone calcium mobilization (serum calcium); format: in vivo, rat; settings: for Bone calcium mobilization activity: rat, intraperitoneal, at the doses tested
Method: (§1) Male, weanling Sprague-Dawley rats were placed on Diet 11 (0.47% Ca) diet+AEK oil for one week followed by Diet 11 (0.02% Ca)+AEK oil for 3 weeks. The rats were then switched to a diet containing 0.47% Ca for one week followed by two weeks on a diet containing 0.02% Ca. Dose administration began during the last week on 0.02% calcium diet. Four consecutive intraperitoneal doses were given approximately 24 hours apart. Twenty-four hours after the last dose, blood was collected from the severed neck and the concentration of serum calcium determined as a measure of bone calcium mobilization. The first 10 cm of the intestine was also collected for intestinal calcium transport analysis using the everted gut sac method.
(§2) Antagonism was tested by administering a combination of 1,25(OH)2D3 and the putative antagonist to the animal simultaneously.

Sprague-Dawley rats [2] = experiment: Intestinal calcium transport (everted gut sac); format: in vivo, rat; settings: for Intestinal calcium transport activity compared with native hormone: rat, intraperitoneal; for Intestinal calcium transport activity at very high doses: very high doses (e.g., 2340-2600 pmol)
Method: as §1, §2

[3] = test system: 24-hydroxylase (24OHase) gene promoter; experiment: In vitro 24-hydroxylase transcription assay (luciferase reporter, ROS 17/2.8 bone cells); format: cell-based; settings: for Antagonism of gene transactivation stimulated by native hormone: combined with 1,25(OH)2D3; for 24OHase Transcription (Relative Activity): native hormone value / working example value, same assay
Method: Transcription activity was measured in ROS 17/2.8 (bone) cells that were stably transfected with a 24-hydroxylase (24OHase) gene promoter upstream of a luciferase reporter gene (Arbour et al., 1998). Cells were given a range of doses. Sixteen hours after dosing, the cells were harvested and luciferase activities were measured using a luminometer. RLU=relative luciferase units.

vitamin D receptor [4] = target: T1, vitamin D receptor (Rattus norvegicus, UniProt P13053); experiment: Competitive vitamin D receptor binding; settings: for Competitive VDR Binding (Relative Activity): native hormone value / working example value, same assay; for Competitive VDR Binding (Relative Activity) / Ki: present compounds; for Ki: read-out: Competitive VDR Binding, Ki; for Binding to the nuclear vitamin D receptor compared with native hormone: versus 1,25(OH)2D3; for VDR binding activity relative to CN-67 (ratio of relative activities): versus CN-67
T1 construct: Full-length recombinant rat receptor was expressed in E. coli; His tag (C); made in house; host or cells: E. coli BL21(DE3) Codon Plus RIL
T1 sequence (P13053 1-423): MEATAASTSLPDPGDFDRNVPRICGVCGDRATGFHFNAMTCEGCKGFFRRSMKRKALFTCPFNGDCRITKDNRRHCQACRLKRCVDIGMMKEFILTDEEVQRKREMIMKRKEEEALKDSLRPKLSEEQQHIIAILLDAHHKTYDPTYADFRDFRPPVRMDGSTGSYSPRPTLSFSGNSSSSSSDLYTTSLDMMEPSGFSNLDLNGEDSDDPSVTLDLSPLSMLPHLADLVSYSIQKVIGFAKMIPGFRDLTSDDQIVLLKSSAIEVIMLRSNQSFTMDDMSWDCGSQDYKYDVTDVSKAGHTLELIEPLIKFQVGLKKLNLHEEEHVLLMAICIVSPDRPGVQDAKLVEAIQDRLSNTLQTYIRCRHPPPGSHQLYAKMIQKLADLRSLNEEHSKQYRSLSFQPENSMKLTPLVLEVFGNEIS
Method: Full-length recombinant rat receptor was expressed in E. coli BL21(DE3) Codon Plus RIL cells and purified to homogeneity using two different column chromatography systems. The first system was a nickel affinity resin that utilizes the C-terminal histidine tag on this protein. The protein that was eluted from this resin was further purified using ion exchange chromatography (S-Sepharose Fast Flow). Aliquots of the purified protein were quick frozen in liquid nitrogen and stored at −80° C. until use. For use in binding assays, the protein was diluted in TEDK50 (50 mM Tris, 1.5 mM EDTA, pH 7.4, 5 mM DTT, 150 mM KCl) with 0.1% Chaps detergent. The receptor protein and ligand concentration was optimized such that no more than 20% of the added radiolabeled ligand was bound to the receptor.
Unlabeled ligands were dissolved in ethanol and the concentrations determined using UV spectrophotometry (1,25(OH)2D3: molar extinction coefficient=18,200 and λmax=265 nm; Analogs: molar extinction coefficient=42,000 and λmax=252 nm). Radiolabeled ligand (^3H-1,25(OH)2D3, ˜159 Ci/mmole) was added in ethanol at a final concentration of 1 nM.
Radiolabeled and unlabeled ligands were added to 100 mcl of the diluted protein at a final ethanol concentration of ≦10%, mixed and incubated overnight on ice to reach binding equilibrium. The following day, 100 mcl of hydroxylapatite slurry (50%) was added to each tube and mixed at 10-minute intervals for 30 minutes. The hydroxylapaptite was collected by centrifugation and then washed three times with Tris-EDTA buffer (50 mM Tris, 1.5 mM EDTA, pH 7.4) containing 0.5% Titron X-100. After the final wash, the pellets were transferred to scintillation vials containing 4 ml of Biosafe II scintillation cocktail, mixed and placed in a scintillation counter. Total binding was determined from the tubes containing only radiolabeled ligand.

vitamin D receptor [5] = target: T1, vitamin D receptor; settings: compounds of U.S. Pat. No. 7,915,242; read-out: Competitive VDR Binding, Ki; cited from earlier work
[6] = when administered with 1,25(OH)2D3, present compounds
[7] = combined with 1,25(OH)2D3, systemic administration

| Structure (SMILES) | EC50 (HL-60 cells; present compounds) | HL-60 cell differentiation activity (HL-60 cells) | HL-60 Differentiation (Relative Activity) (HL-60 cells; present compounds) | Bone calcium mobilization activity (Sprague-Dawley rats [1]) | Intestinal calcium transport activity compared with native hormone (Sprague-Dawley rats [2]) | Intestinal calcium transport activity at very high doses (Sprague-Dawley rats [2]) | Antagonism of gene transactivation stimulated by native hormone [3] | 24OHase Transcription (Relative Activity) ([3]; present compounds) | EC50 ([3]; present compounds) | Competitive VDR Binding (Relative Activity) (vitamin D receptor [4]) | Ki (vitamin D receptor [4]) | Binding to the nuclear vitamin D receptor compared with native hormone (vitamin D receptor [4]) | VDR binding activity relative to CN-67 (ratio of relative activities) (vitamin D receptor [4]) | Ki (vitamin D receptor [5]) | further results |
| --- | --- | --- | --- | --- | --- | --- | --- | --- | --- | --- | --- | --- | --- | --- | --- |
| C=C1[C@H](O)CC(=C/C=C2\CCC[C@]3(C)[C@@H]([C@H](C)/C=C/[C@@H](O)C4(C(=O)SCCCC)CC4)CC[C@@H]23)C[C@H]1O [AS-51, (20R,22E,24R)-25-carbobutylsulfanyl-2-methylene-26,27-cyclo-22-dehydro-1α,24-dihydroxy-19-norvitamin D3] | > 1000 nM | does not effectively promote cellular differentiation | 0.002 | essentially inactive in releasing bone calcium stores; also recorded: neither PP-48 nor AS-51 demonstrate any appreciable ability to mobilize calcium from bone | somewhat less active than 1,25(OH)2D3 in stimulating intestinal calcium transport at very high doses; also recorded: potency less than that of the native hormone at low doses | increased intestinal calcium transport activity at very high doses | can inhibit gene transactivation stimulated by the native hormone; also recorded: antagonistic activity; also recorded: inhibits gene transactivation stimulated by the native hormone | 0.02 | 6 nM | 1.0 | 0.1 nM | same potency as the native hormone; also recorded: bind the vitamin D receptor | ≈ 67 times |  | Concentrations showing inhibition of cellular differentiation (HL-60 cells; antagonist mode): 10^−8-10^−7 M; Inhibition of native hormone-induced HL-60 differentiation (HL-60 cells; combined with 1,25(OH)2D3): potent inhibitor of the native hormone; also recorded: antagonistic activity; HL-60 potency relative to CN-67 (ratio of relative activities) (HL-60 cells; versus CN-67): ≈ 0.03; HL-60 potency relative to OU-72 (ratio of relative activities) (HL-60 cells; versus OU-72): ≈ 0.007; HL-60 Differentiation, antagonism (HL-60 cells; [6]): Antagonistic; In vivo antagonism in combination with native hormone (bone calcium mobilization) (Sprague-Dawley rats [1]; [7]): no antagonism was observed; In vivo antagonism in combination with native hormone (intestinal calcium transport) (Sprague-Dawley rats [2]; [7]): no antagonism was observed; Concentrations showing inhibition of gene transactivation ([3]; antagonist mode): 10^−8-10^−7 M; Times less potent than native hormone in increasing transcription of the 24-hydroxylase gene ([3]; bone cells, versus 1,25(OH)2D3): ~60 times; 24-hydroxylase transcription potency relative to CN-67 (ratio of relative activities) ([3]; versus CN-67, bone cells): ≈ 3; 24-hydroxylase transcription potency relative to OU-72 (ratio of relative activities) ([3]; versus OU-72, bone cells): 2; 24OHase Transcription, antagonism [3, 6]: Antagonistic |
| C=C1C(O)CC(=CC=C2CCCC3(C)C2CCC3C(C)C=CC(OCCCC)C2(C(=O)OCCCC)CC2)CC1O [CN-67, (22E)-(24R)-24-butoxy-25-carbobutoxy-2-methylene-26,27-cyclo-22-dehydro-1α-hydroxy-19-norvitamin D3] |  |  |  |  |  |  |  |  |  |  |  |  |  | 1.5 nM |  |
| C=C1C(O)CC(=CC=C2CCCC3(C)C2CCC3C(C)C=CC(O)C2(C(=O)OCCCC)CC2)CC1O [OU-72, (22E)-(24R)-25-carbobutoxy-2-methylene-26,27-cyclo-22-dehydro-1α,24-dihydroxy-19-norvitamin D3] |  |  |  |  |  |  |  |  |  |  |  |  |  | 0.023 nM |  |
| C=C1[C@H](O)CC(=C/C=C2\CCC[C@]3(C)[C@@H]([C@H](C)/C=C/C(=O)C4(C(=O)CCC(C)C)CC4)CC[C@@H]23)C[C@H]1O [PP-48, (20R,22E)-2-methylene-25-(4-methylpentanoyl)-24-oxo-26,27-cyclo-22-dehydro-1α-hydroxy-19-norvitamin D3] | 30 nM | agonistic behavior; also recorded: active in causing HL-60 differentiation | 0.1 | essentially no ability to mobilize calcium from bone; also recorded: essentially inactive in releasing bone calcium stores; also recorded: neither PP-48 nor AS-51 demonstrate any appreciable ability to mobilize calcium from bone | potency similar to that of the native hormone | increased intestinal calcium transport activity at very high doses | no antagonistic activity | 0.1 | 2 nM | 0.17 | 0.6 nM | lower affinity relative to 1,25(OH)2D3; also recorded: lower affinity than the native hormone; also recorded: bind the vitamin D receptor | ≈ 11 times |  | Intestinal calcium transport activity at moderate doses (Sprague-Dawley rats [2]; moderate doses): only PP-48 increased such transport significantly at moderate doses; 24-hydroxylase transcription activity ([3]; compound alone): agonistic behavior; also recorded: exhibits activity in 24-hydroxylase transcription, albeit reduced from the native hormone |
